The target of series [1] is acetylcholine esterase (Homo sapiens, UniProt P22303). Nature of the series: biochemical.
For series [2], the system named is acetylcholine esterase. Nature of the series: AChE inhibition ex vivo (Table II). It is filed as in vivo.
Setting [3] is: time not given, read-out: AchE inhibition IC50.
The mark [4] stands for this setting: read-out: AchE inhibition IC50 (5′).
Setting [5] is: read-out: AchE inhibition IC50 (30′).

Where two headings read alike, the source gives them in different places.

Chain of acetylcholine esterase (Homo sapiens, UniProt P22303) (P22303 32-614): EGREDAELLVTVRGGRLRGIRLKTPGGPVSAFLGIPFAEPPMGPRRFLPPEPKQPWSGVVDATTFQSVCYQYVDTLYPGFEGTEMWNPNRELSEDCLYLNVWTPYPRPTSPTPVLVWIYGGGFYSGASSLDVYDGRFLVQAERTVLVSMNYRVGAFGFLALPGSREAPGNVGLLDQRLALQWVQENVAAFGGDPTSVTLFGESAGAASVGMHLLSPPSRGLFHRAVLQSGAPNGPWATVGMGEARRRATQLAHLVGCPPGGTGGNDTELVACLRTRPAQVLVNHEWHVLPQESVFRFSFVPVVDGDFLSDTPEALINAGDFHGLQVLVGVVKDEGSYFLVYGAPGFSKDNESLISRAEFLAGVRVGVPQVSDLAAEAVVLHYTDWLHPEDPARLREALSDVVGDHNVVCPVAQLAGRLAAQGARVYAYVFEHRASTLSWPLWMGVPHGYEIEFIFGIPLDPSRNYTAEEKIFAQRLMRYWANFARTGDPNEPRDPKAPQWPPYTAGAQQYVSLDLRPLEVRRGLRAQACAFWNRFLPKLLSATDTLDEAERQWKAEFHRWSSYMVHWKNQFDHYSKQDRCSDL

Turning to `CN(C)C(=O)Oc1cccc(-c2cc(=O)c3cc(N(C)C)ccc3o2)c1`, the melting point (commonly the temperature of the solid-liquid transition) is 167 to 168 °C.

The compound `CCOc1ccc2c(=O)cc(-c3ccccc3OC(=O)N(C)C)oc2c1` yielded a melting point of 166 to 168 °C. In turn, `CCOc1ccc2c(=O)cc(-c3ccccc3OC(=O)N(C)CC)oc2c1` showed a melting point of 91 to 93.5 °C. The same measure, in the same setting: the value for `COc1ccccc1-c1cc(=O)c2ccc(OC(=O)N(C)C)cc2o1` was 133.5 to 135 °C. In turn, `CN(C)C(=O)Oc1ccc2c(=O)cc(-c3ccccc3OC(=O)N(C)C)oc2c1` came in with a melting point of 145.5 to 147 °C. Still for that read-out and setting: as for `CN(C)C(=O)Oc1cccc(-c2cc(=O)c3cc(N)ccc3o2)c1`, the figure is 157 to 159 °C.

For `CN(C)C(=O)Oc1ccccc1-c1cc(=O)c2ccccc2o1`, the concentration for half-maximal inhibition (IC50) (in general, the point on the concentration scale where inhibition reaches its midpoint) on acetylcholine esterase [1] (setting [3]) was 2.65 µM. In the series on acetylcholine esterase [2] (at 40 μM/kg), the “AchE inhibition Ex vivo” value was found to be 29% at 40 μM/kg. In the case of `CN(C)C(=O)Oc1cccc(-c2cc(=O)c3ccccc3o2)c1`, the half-inhibitory concentration (IC50) on acetylcholine esterase [1] (setting [3]) stood at 1.4 µM. For the same compound, the “AchE inhibition Ex vivo” value in the series on acetylcholine esterase [2] (at 40 μM/kg) is listed as 42% at 40 μM/kg. For the compound `CCN(C)C(=O)Oc1cccc(-c2cc(=O)c3ccccc3o2)c1`, the IC50 on acetylcholine esterase [1] (setting [3]) was determined as 41 µM. As to `CCN(C)C(=O)Oc1ccccc1-c1cc(=O)c2ccccc2o1`, at acetylcholine esterase [1] (setting [3]), the IC50 is 3.5 µM. Further, the “AchE inhibition Ex vivo” value with acetylcholine esterase [2] (at 50 μM/kg) turned out to be 14% at 50 μM/kg.

Regarding `C[N+](C)(C)c1ccc2oc(-c3ccccc3)cc(=O)c2c1`, the values for the IC50 at acetylcholine esterase [1] (setting [4]) and at acetylcholine esterase [1] (setting [5]) were 10.5 µM and 48 µM, respectively. As for `COc1ccc(-c2cc(=O)c3cc([N+](C)(C)C)ccc3o2)cc1`, the IC50 was found to be 5.5 µM on acetylcholine esterase [1] (setting [4]) and 6 µM at acetylcholine esterase [1] (setting [5]). In the same order, the values of `CN(C)CCOc1cccc(-c2cc(=O)c3ccccc3o2)c1` are 10 µM and 5.8 µM.

(Values after US6610738B2, “N-disubstituted carbamoyloxy flavones” (priority 2000, dated 2003).)
